Broadly, the Ki is a dissociation constant, usually derived from enzyme kinetics or from competition with a known ligand. Higher therefore signals lower affinity. The IC50 is the concentration that gives 50% inhibition.

Structures are written as SMILES.

Among the data in ChEMBL document CHEMBL1145650, “5-Aryluracils as potent GnRH antagonists-Characterization of atropisomers” (Bioorg Med Chem Lett, 2008) are Ki and IC50 values, retold here.

The target of assay [1] is T1, Gonadotropin-releasing hormone receptor (Homo sapiens, UniProt P30968).
T1 sequence (P30968 whole entry): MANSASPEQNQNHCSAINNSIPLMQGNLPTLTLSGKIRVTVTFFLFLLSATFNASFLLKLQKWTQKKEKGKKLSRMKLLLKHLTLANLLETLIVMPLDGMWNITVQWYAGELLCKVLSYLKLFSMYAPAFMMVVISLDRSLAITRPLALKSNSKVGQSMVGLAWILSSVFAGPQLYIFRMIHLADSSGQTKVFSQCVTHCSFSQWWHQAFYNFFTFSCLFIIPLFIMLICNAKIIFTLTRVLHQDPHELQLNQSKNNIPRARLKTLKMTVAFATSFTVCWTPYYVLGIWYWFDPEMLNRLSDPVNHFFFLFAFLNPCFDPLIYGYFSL
In words: Binding affinity to human GnRHR.

In assay [2] the target is T1, Gonadotropin-releasing hormone receptor. The assay is described as follows: Antagonist activity at human GnRHR assessed as inhibition of calcium flux by IP3 assay. The assay is classed as functional.

`CC[C@H](Cn1c(=O)c(-c2cccc(OC)c2F)c(C)n(Cc2c(F)cccc2C(F)(F)F)c1=O)NC1CCCC1` displayed an inhibitory constant (Ki) in assay [1] of 20 nM.
For the compound `COc1cccc(-c2c(C)n(Cc3c(F)cccc3C(F)(F)F)c(=O)n(C[C@H](C)NC3CCCC3)c2=O)c1F`, the IC50 in assay [2] is 3.3 nM. In addition, the Ki in assay [1] turned out to be 0.61 nM.
`COc1cccc(-c2c(C)n(Cc3c(F)cccc3C(F)(F)F)c(=O)n(C[C@H](C)NC3CCCC3)c2=O)c1` gave an inhibitory constant (Ki) in assay [1] of 4.5 nM.
For `CC[C@@H](Cn1c(=O)c(-c2cccc(OC)c2F)c(C)n(Cc2c(F)cccc2C(F)(F)F)c1=O)NC1CCCC1`, the Ki in assay [1] amounted to 4.2 nM.
`CC[C@H](Cn1c(=O)c(-c2cccc(OC)c2Cl)c(C)n(Cc2c(F)cccc2C(F)(F)F)c1=O)NC1CCCC1` came in with a Ki in assay [1] of 7.4 nM.
The compound `COc1cccc(-c2c(C)n(Cc3c(F)cccc3C(F)(F)F)c(=O)n(C[C@@H](C)NC3CCCC3)c2=O)c1F` came in with an inhibitory constant (Ki) in assay [1] of 33 nM.
On to `COc1cccc(-c2c(C)n(Cc3c(F)cccc3C(F)(F)F)c(=O)n(C[C@H](CO)NC3CCCC3)c2=O)c1Cl`, for which the IC50 in assay [2] stood at 5.4 nM. The compound also yielded a Ki in assay [1] of 0.7 nM.
In assay [1], `CC[C@@H](Cn1c(=O)c(-c2cccc(OC)c2Cl)c(C)n(Cc2c(F)cccc2C(F)(F)F)c1=O)NC1CCCC1` gave a Ki of 3.7 nM.
Consider `COc1cccc(-c2c(C)n(Cc3c(F)cccc3F)c(=O)n(C[C@H](CO)NC3CCCC3)c2=O)c1F`, for which, in assay [1], the Ki stood at 4.9 nM.
Regarding `COc1cccc(-c2c(C)n(Cc3c(F)cccc3C(F)(F)F)c(=O)n(C[C@H](CO)NC3CCCC3)c2=O)c1Cl` (atropisomer R), in assay [2], the IC50 is 2.6 nM. In assay [1], this compound yielded a Ki of 0.36 nM.
On the same counts, the results for `COc1cccc(-c2c(C)n(Cc3c(F)cccc3C(F)(F)F)c(=O)n(C[C@H](CO)NC3CCCC3)c2=O)c1Cl` (single isomer, unassigned; atropisomer) are 2500 nM and 190 nM.
On to `COc1cccc(-c2c(C)n(Cc3c(F)cccc3C(F)(F)F)c(=O)n(C[C@H](C)NC3CCCC3)c2=O)c1Cl` (single isomer, unassigned; form 1), for which the IC50 in assay [2] is 385 nM. Also, in assay [1], the affinity, expressed as Ki, was 61 nM.
Turning to `COc1cccc(-c2c(C)n(Cc3c(F)cccc3C(F)(F)F)c(=O)n(C[C@H](C)NC3CCCC3)c2=O)c1Cl` (single isomer, unassigned; form 2), the IC50 in assay [2] was found to be 1.5 nM. In addition, the Ki in assay [1] was found to be 0.3 nM.
